Reference: patent US5039691A, “5-(1-(imidazol)methyl)-3,3-disubstituted-2(3H)furanone derivatives” (Marion Merrell Dow Inc., priority 1990, dated 1991)
Counter-ions that a name gives are not always drawn.

Assays:
[1] = biological target: T1, muscarinic cholinergic receptors on intestinal (ileal-longitudinal) smooth muscle (Cavia porcellus, UniProt H0W1Z3); experiment: Antimuscarinic test: antagonism of carbachol contraction of isolated ileum (Muscarinic Antagonist Activity, Ileum); parameters: species or system guinea pig; settings: carbachol agonist, 37° C.
T1 construct: The longitudinal muscle, with the myenteric plexus attached, is separated from the underlying circular muscle; from tissue; host or cells: guinea pig ileum, longitudinal smooth muscle with myenteric plexus
T1 sequence (H0W1Z3 1-590): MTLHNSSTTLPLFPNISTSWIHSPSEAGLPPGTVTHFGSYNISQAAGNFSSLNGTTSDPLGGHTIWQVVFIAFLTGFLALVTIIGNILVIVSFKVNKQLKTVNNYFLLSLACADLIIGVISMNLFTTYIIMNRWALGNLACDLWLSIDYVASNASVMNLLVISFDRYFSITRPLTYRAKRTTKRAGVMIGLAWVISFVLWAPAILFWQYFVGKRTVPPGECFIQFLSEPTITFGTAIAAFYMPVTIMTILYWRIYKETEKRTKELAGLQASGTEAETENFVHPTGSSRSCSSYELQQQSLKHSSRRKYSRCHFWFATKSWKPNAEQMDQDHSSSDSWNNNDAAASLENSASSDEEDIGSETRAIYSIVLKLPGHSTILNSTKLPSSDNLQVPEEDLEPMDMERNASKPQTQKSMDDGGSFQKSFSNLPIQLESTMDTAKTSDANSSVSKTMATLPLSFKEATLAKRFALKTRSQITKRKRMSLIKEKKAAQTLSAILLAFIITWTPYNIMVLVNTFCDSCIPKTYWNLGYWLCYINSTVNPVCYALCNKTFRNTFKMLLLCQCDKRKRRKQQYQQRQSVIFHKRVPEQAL

[2] = biological target: T2, muscarinic cholinergic receptors on bladder detrusor muscle (Cavia porcellus, UniProt H0W1Z3); experiment: Antimuscarinic test: antagonism of carbachol contraction of isolated bladder (Muscarinic Antagonist Activity, Bladder); parameters: species or system guinea pig; settings: bladder detrusor strips, carbachol agonist, 35° C.
T2 construct: The peritoneal cavity is opened and the bladder is held lightly at its apex; from tissue; host or cells: guinea pig urinary bladder, detrusor strips without mucosa
T2 sequence (H0W1Z3 1-590): as above
Experimental: ANTIMUSCARINIC TEST PROTOCOL
PREPARATION OF BLADDER FOR TESTING
Male albino guinea pigs are killed by decapitation or cervical dislocation. The peritoneal cavity is opened and the bladder is held lightly at its apex, stretched gently, and fat is lifted with fine forceps and dissected away in situ with blunt-tipped scissors as close to the surface of the bladder as possible. The tissue is placed in a latex-bottomed Petri dish that contains a modified Krebs solution (133 mM NaCl, 1.3 mM […], 16.3 mM NaHCO3, 4.7 mM KCl, 0.6 mM MgSO4.7H2 O, 2.5 mM CaCl2.2H2 O, 7.7 mM dextrose) and cut above the neck. The bladder is collapsed into a flat pouch, which is opened by two lateral incisions and unfolded to give a rectangular sheet of tissue approximately 2 cm long and 1 cm wide. The sheet is gently stretched and pinned to the bottom of the Petri dish. Blunt separation of the mucosa, which is visible as a looser superficial pink layer, is started at one end by carefully inserting the blades of micro dissecting scissors between the mucosa and muscle layers and using gentle spreading of the blades, together with steady traction with forceps to tease the two layers apart. Clean removal of the mucosa is usually possible without any fraying or tearing of the underlying muscle. The removal of the mucosa is considered essential for improving oxygen supply to the preparation and for providing better access on both sides of the thin muscle sheet for administered drugs (Ambache and Zar, J. Physiol. 210:671, 1970). The sheet is trimmed, if necessary, and cut longitudinally into four strips.
The strips are tied off with 5-0 silk suture and are then suspended in 10 mL water-jacketed glass tissue baths containing the Krebs solution maintained at 35° C. and aerated with 95% O2 /5% CO2. The suture connects each tissue to an isometric force-displacement transducer (Grass or Gould) coupled to a physiograph. Each preparation is suspended under a resting tension of 0.5 g and allowed to equilibrate for 36 minutes. During this period, the baths are emptied and filled every 12 minutes with 10 mL of warm Krebs buffer. At the end of this period, each muscle strip is conditioned by adding 10 μM carbachol to the baths. The drug remains in contact with each tissue for 1-2 minutes and then is removed by four rapid rinses of 10 mL of warm Krebs buffer. The preparations are allowed to recover for an additional 12 minutes before being used in experiments.
Carbachol is dissolved in saline to produce 2×10^-2 M stock concentrations. Serial dilutions (1:10) in saline or water are made from the stock solution. Appropriate volumes of these solutions are added cumulatively to the 10 mL tissue baths in order to obtain the desired bath concentrations.
PREPARATION OF TEST COMPOUNDS
Compounds that are soluble in water or saline are dissolved in these solvents to produce 2×10^-2 or 2×10^-3 M stock concentrations. Small amounts of IN HCl, NaOH, or 95% ethanol may be added for those agents that are not soluble in water or saline alone. Serial dilutions (1:10) in saline or water are made from the stock solution. Compounds that are insoluble in aqueous solvents are dissolved in dimethylsulfoxide (DMSO) to produce 4×10^-2 M stock solutions. Serial dilutions (1:10) in water are made from the stock solution. Other solvents may be used when appropriate and will be specifically described in the experimental procedure. Appropriate volumes are then added to the baths in order to obtain the desired bath concentrations.
Appropriate volumes of carbachol solutions are cumulatively added to the 10 mL tissue baths to increase the concentration of carbachol in the bath step-by-step without washing out after each single dose. With each concentration step, the tissue contracts isometrically. The next concentration is added only after the preceding contraction has reached a steady value. […]

[3] = tested on: Male Guinea pigs; experiment: Primary in vivo bronchodilator assay for muscarinic antagonists (reversal of carbachol bronchoconstriction); parameters: species or system guinea pig; settings: Cavia porcellus, iv, cumulative dose causing 50% reversal of carbachol bronchoconstriction
Experimental: PRIMARY IN VIVO BRONCHODILATOR ASSAY FOR MUSCARINIC ANTAGONISTS Male Guinea pigs were anesthetized by urethane. The trachea, carotid artery and jugular vein were cannulated. Animals were ventilated with room air at a constant rate and volume. Airway pressure was measured from a side port of the tracheal catheter, and blood pressure and heart rate were monitored as well. After a stable baseline period, an aerosol of carbachol was administered via an ultrasonic nebulizer. Once the bronchoconstrictor response plateaued, test compound was given in increasing i.v. doses to cause graded, cumulative reductions in airway pressure. If more than a 50% reversal of bronchoconstriction occurred, an ED50 value for bronchodilator potency was calculated using a probit analysis. The ED50 was defined as the cumulative i.v. dose that caused a 50% reversal of bronchoconstriction.

[4] = tested on: mammalian heart tissue; settings: Pohland, S. African Patent 68 05,631; cited from earlier work
[5] = tested on: isolated guinea pig ileum; settings: Kolokouris et al., Ann. Pharm. Fr. 1985; cited from earlier work
[6] = Solubility; format: physicochemical

SMILES	Kb [1]	Kb [2]	ED50 [3]	other results
CCN(CC)CC1CC(c2ccccc2)(c2ccccc2)C(=O)O1 (stereo not drawn) [5-[(Diethylamino)-methyl]-4,5-dihydro-3,3-diphenyl-2(3H)furanone]				antiarrhythmic effectiveness in mammalian heart tissue [4]: antiarrhythmic effectiveness in mammalian heart tissue
CN(C)CC1CC(c2ccccc2)(c2ccccc2)OC1=O (stereo not drawn) [3-[(dimethylamino)methyl]-4,5-dihydro-5,5-diphenyl-2(3H)furanone]				prevents contractions of isolated guinea pig ileum (spasmolytic) [5]: prevents contractions of isolated guinea pig ileum
CCOCc1n(C)cc[n+]1CC1CC(c2ccccc2)(c2ccccc2)C(=O)O1 (stereo not drawn) [5-[1-(Ethoxymethyl-3-methylimidazol)methyl]-4,5-dihydro-3,3-diphenyl-2(3H)furanone iodide]	253 nM	339 nM	> 10 mg/kg	
CCCc1n(CC2CC(c3ccccc3)(c3ccccc3)C(=O)O2)cc[n+]1C (stereo not drawn) [5-[1-(3-Methyl-2-n-propylimidazol-methyl]-4,5-dihydro-3,3-diphenyl-2(3H)furanone iodide]	23 nM	11 nM	0.11 mg/kg	
CC(C)c1n(CC2CC(c3ccccc3)(c3ccccc3)C(=O)O2)cc[n+]1C (stereo not drawn) [5-[1-(2-Isopropyl-3-methylimidazol)methyl]-4,5-dihydro-3,3-diphenyl-2(3H)furanone iodide]	4 nM	2.4 nM		
CCc1nccn1C[C@H]1CC(c2ccccc2)(c2ccccc2)C(=O)O1 [(R)-(+)-5-[1-(2-Ethylimidazol)methyl]-4,5-dihydro-3,3-diphenyl-2(3H)furanone hydrochloride]	21 nM	129 nM		
CC(C)c1nccn1CC1CC(c2ccccc2)(c2ccccc2)C(=O)O1 (stereo not drawn) [5-[1-(2-Isopropylimidazol)methyl]-4,5-dihydro-3,3-diphenyl-2(3H)furanone hydrochloride]	30 nM	33 nM	0.83 mg/kg	

Now from value to molecule, other results behind:

Kb [1]	Kb [2]	SMILES	ED50 [3]	other results
68 nM	86 nM	CCc1nccn1CC1CC(c2ccccc2)(c2ccccc2)C(=O)O1 (stereo not drawn) [5-[1-(2-Ethylimidazol)methyl]-4,5-dihydro-3,3-diphenyl-2(3H)furanone hydrochloride]	4 mg/kg	
10 nM	15 nM	CC(C)c1nccn1C[C@H]1CC(c2ccccc2)(c2ccccc2)C(=O)O1 [(R)-(+)-5-[1-(2-Isopropylimidazol)methyl]-4,5-dihydro-3,3-diphenyl-2(3H)furanone hydrochloride]		
140 nM		O=C1OC(Cn2cnc(-c3ccccc3)c2)CC1(c1ccccc1)c1ccccc1 (stereo not drawn) [5-[1-(4-Phenylimidazol)methyl]-4,5-dihydro-3,3-diphenyl-2(3H)furanone hydrochloride hydrate]		Insol. (printed in the bronchodilator ED50 column) ([6]; bronchodilator test, i.v.): Insol.
21 nM	70 nM	CCCc1nccn1CC1CC(c2ccccc2)(c2ccccc2)C(=O)O1 (stereo not drawn) [5-[1-(2-n-Propylimidazol)methyl]-4,5-dihydro-3,3-diphenyl-2(3H)furanone hydrochloride]	1.3 mg/kg	
322 nM	151 nM	C[n+]1ccn(CC2CC(c3ccccc3)(c3ccccc3)C(=O)O2)c1 (stereo not drawn) [5-[1-(3-Methylimidazol)methyl]-4,5-dihydro-3,3-diphenyl-2(3H)furanone bromide hydrate]	1 mg/kg	
31 nM		CC(C)c1nccn1CC1=CC(c2ccccc2)(c2ccccc2)C(=O)O1 [5-[1-(2-Isopropylimidazol)methyl]-3,3-diphenyl-2(3H)furanone hydrochloride hydrate]		solubility ([6]; in 0.5N HCl and 1 drop of Tween 80): > 1000 µg/mL
8 nM	5 nM	CCc1n(CC2CC(c3ccccc3)(c3ccccc3)C(=O)O2)cc[n+]1C (stereo not drawn) [5-[1-(2-Ethyl-3-methylimidazol)methyl]-4,5-dihydro-3,3-diphenyl-2(3H)furanone bromide]	0.13 mg/kg	
107 nM	238 nM	Cc1nccn1CC1CC(c2ccccc2)(c2ccccc2)C(=O)O1 (stereo not drawn) [5-[1-(2-Methylimidazol)methyl]-4,5-dihydro-3,3-diphenyl-2(3H)furanone]	5.5 mg/kg	
